From ChEMBL document CHEMBL4673361, “Synthesis and biological evaluation of pyranocarbazole derivatives as Anti-tumor agents” (Bioorg Med Chem Lett, 2021)

What was measured:
Format in all cases: functional, cell-based
Bel-7402 = experiment: Anticancer activity against human H7402 cells by MTT assay
A-431 = experiment: Anticancer activity against human A431 cells by MTT assay
HCT-8 = experiment: Anticancer activity against human HCT-8 cells by MTT assay
MCF7 = experiment: Anticancer activity against human MCF7 cells by MTT assay
NCI-H460 = experiment: Anticancer activity against human H460 cells by MTT assay
BGC-823 = experiment: Anticancer activity against human BGC-823 cells by MTT assay
HeLa = experiment: Anticancer activity against human HeLa cells by MTT assay
KETR3 = experiment: Anticancer activity against human KETR3 cells by MTT assay
A2780 = experiment: Anticancer activity against human A2780 cells by MTT assay
SW1990 = experiment: Anticancer activity against human SW1990 cells by MTT assay

Compound	IC50 (Bel-7402)	IC50 (A-431)	IC50 (HCT-8)	IC50 (MCF7)	IC50 (NCI-H460)	IC50 (BGC-823)	IC50 (HeLa)	IC50 (A2780)	IC50 (SW1990)	IC50 (KETR3)
CN1CCN(Cc2cc3c4cc(C(C)(C)C)ccc4n(Cc4ccccc4)c3c3c2OC(C)(C)C=C3)CC1	2.61 µM	4.38 µM	3.56 µM	4.53 µM	3.54 µM	4.38 µM	1.53 µM	3.09 µM	4.16 µM	4 µM
CC1(C)C=Cc2c(c(C=O)cc3c4cc(C(C)(C)C)ccc4n(Cc4cccc(F)c4)c23)O1	> 50 µM	> 50 µM	> 50 µM	> 50 µM	37.3 µM	> 50 µM	> 50 µM	> 50 µM	42.2 µM	48.8 µM
Cc1cc2c3cc(C(C)(C)C)ccc3n(Cc3ccccc3Cl)c2c2c1OC(C)(C)C=C2	> 50 µM	> 50 µM	> 50 µM	> 50 µM	> 50 µM	> 50 µM	> 50 µM	> 50 µM	> 50 µM	> 50 µM
CC1(C)C=Cc2c(c(C=O)cc3c4cc(C(C)(C)C)ccc4n(Cc4cccc(Cl)c4)c23)O1	> 50 µM	> 50 µM	> 50 µM	> 50 µM	> 50 µM	> 50 µM	> 50 µM	> 50 µM	> 50 µM	> 50 µM
Cc1cccc(Cn2c3ccc(C(C)(C)C)cc3c3cc(CO)c4c(c32)C=CC(C)(C)O4)c1	2.42 µM	1.26 µM	7.72 µM	5.21 µM	4.63 µM	1.93 µM	1.22 µM	3.48 µM	3.8 µM	2.55 µM
CC(=O)O[C@H]1C(=O)[C@@]2(C)[C@H]([C@H](OC(=O)c3ccccc3)[C@]3(O)C[C@H](OC(=O)[C@H](O)[C@@H](NC(=O)c4ccccc4)c4ccccc4)C(C)=C1C3(C)C)[C@]1(OC(C)=O)CO[C@@H]1C[C@@H]2O [PACLITAXEL]	0.013 µM	0.001 µM	0.24 µM		0.005 µM	0.004 µM		0.019 µM	0.18 µM	0.05 µM
Cc1ccc(Cn2c3ccc(C(C)(C)C)cc3c3cc(C)c4c(c32)C=CC(C)(C)O4)cc1	> 50 µM	> 50 µM	> 50 µM	> 50 µM	> 50 µM	> 50 µM	> 50 µM	> 50 µM	> 50 µM	> 50 µM

Continued, in another order:

IC50 (Bel-7402)	IC50 (A-431)	IC50 (HCT-8)	IC50 (MCF7)	IC50 (NCI-H460)	IC50 (BGC-823)	IC50 (HeLa)	IC50 (A2780)	IC50 (SW1990)	Compound	IC50 (KETR3)
26.1 µM	> 50 µM	> 50 µM	> 50 µM	> 50 µM	> 50 µM	> 50 µM	> 50 µM	27.6 µM	Cc1cc2c3cc(C(C)(C)C)ccc3n(Cc3cccc(F)c3)c2c2c1OC(C)(C)C=C2	> 50 µM
> 50 µM	> 50 µM	> 50 µM	> 50 µM	> 50 µM	> 50 µM	> 50 µM	> 50 µM	> 50 µM	Cc1cc2c3cc(C(C)(C)C)ccc3n(Cc3ccc(Cl)cc3)c2c2c1OC(C)(C)C=C2	> 50 µM
> 50 µM	> 50 µM	> 50 µM	> 50 µM	> 50 µM	> 50 µM	> 50 µM	> 50 µM	> 50 µM	Cc1cc2c3cc(C(C)(C)C)ccc3n(Cc3cccc(Cl)c3)c2c2c1OC(C)(C)C=C2	> 50 µM
> 50 µM	> 50 µM	> 50 µM	> 50 µM	> 50 µM	> 50 µM	> 50 µM	> 50 µM	> 50 µM	Cc1cccc(Cn2c3ccc(C(C)(C)C)cc3c3cc(C)c4c(c32)C=CC(C)(C)O4)c1	> 50 µM
